Laboratory results reported in patent US20220160734A1, “TREATMENT OF FIBROIDS WITH VITAMIN D AND AN AGENT SUCH AS EPIGALLOCATECHIN GALLATE (EGCG)” (LO.LI. PHARMA S.R.L., priority 2019, published 2022).

Legend:
[1] = system: human uterine fibroid cells; settings: in vitro; cited from earlier work
[2] = system: uterine fibroids; settings: animal models; cited from earlier work
[3] = system: fibronectin release in cultured fibroblasts; test: Fibronectin release in TGF-β1-stimulated fibroblasts, western blot; assay type: cell-based, human; settings: Phase I; 18 days culture, 24 h TGF-β1 10 ng/ml, then 24 h treatment; vitamin D3 0.005 μg/ml, EGCG 0.03 mg/ml; FIG. 1
Text: Anti-fibrotic properties of epigallocatechin gallate (EGCG) and vitamin D3 (alone or in combination) have been preliminary tested in human normal fibroblasts in 2D cultures. Human normal fibroblasts used in this experiment are Primary cell cultures. To discard any effect on fibroblast viability, proliferation and apoptosis were also investigated. Fibroblasts culture: DMEM, 10% FBS, 1% L-Glu, 1% Pen/strep for 18 days; Fibroblasts were allowed to grow in the above fibroblast culture for 18 days until reaching 50% confluence. Then, the fibrotic process was fostered by adding 10 ng/ml TGF-β1 (Peprotech, cat no. #100-21-10UG). […]
(§1) Fibronectin and collagen release were both measured in western blot for assessing the anti-fibrotic effect. […]
(§2) Fibronectin and collagen release from fibroblasts were analyzed at 24 hours after addition of EGCG or vitamin D3 in previously stimulated fibroblast, as described above. […]
Data are reported in FIGS. 3 A-B and 4 A-B and expressed as fold-decrease of OD-Units in respect to the control value, which was obtained for fibroblasts after 24 hours of stimulation with TGF-β1 (e.g. a decrease of 50% between two measurements would be referred to a “half-fold change”). Fold change is a measure describing how much a quantity changes between an original and a subsequent measurement. […]

[4] = system: collagen release in cultured fibroblasts; test: Collagen release in TGF-β1-stimulated fibroblasts, western blot; assay type: cell-based, human; settings: Phase I, 18 days culture, 24 h TGF-β1 10 ng/ml, then 24 h treatment, vitamin D3 0.005 μg/ml, EGCG 0.03 mg/ml, FIG. 2
Text: (§3) Anti-fibrotic properties of epigallocatechin gallate (EGCG) and vitamin D3 (alone or in combination) have been preliminary tested in human normal fibroblasts in 2D cultures. Human normal fibroblasts used in this experiment are Primary cell cultures. To discard any effect on fibroblast viability, proliferation and apoptosis were also investigated. Fibroblasts culture: DMEM, 10% FBS, 1% L-Glu, 1% Pen/strep for 18 days; Fibroblasts were allowed to grow in the above fibroblast culture for 18 days until reaching 50% confluence. Then, the fibrotic process was fostered by adding 10 ng/ml TGF-β1 (Peprotech, cat no. #100-21-10UG). 24 hours after addition of TGF-β1, fibroblasts were thoroughly washed with PBS, fresh fibroblast culture medium and the below formulas were added. Fibroblasts were then allowed to grow for an additional 24 hours.
Vitamin D3 (cholecalciferol, CAS-No. 67-97-0): 0.005 μg/ml in DMSO. Vitamin D3 was dissolved in DMSO and after that further dilutions were made in PBS. Essentially, the cells receive the same “dose” of DMSO, this allows a clean comparison of the test. In this case, DMSO 1:10000 was used;
EGCG (GREEN TEA DRY EXTRACT 95% POLYPHENOLS; CAS-No. 84650-60-2): 0.03 mg/ml in H2O;
combined treatment: EGCG 0.03 mg/ml+vitamin D3 0.005 μg/ml;
control: vehicle only (DMSO);
as §1, §2
Data are reported in FIGS. 3 A-B and 4 A-B and expressed as fold-decrease of OD-Units in respect to the control value, which was obtained for fibroblasts after 24 hours of stimulation with TGF-β1 (e.g. a decrease of 50% between two measurements would be referred to a “half-fold change”). Fold change is a measure describing how much a quantity changes between an original and a subsequent measurement. It is defined as the ratio between the two quantities; for quantities A and B, then the fold change of B with respect to A is B/A.

[5] = system: human normal fibroblasts; test: Fibroblast proliferation, viability and morphology; settings: Phase I; vitamin D3 0.005 μg/ml, EGCG 0.03 mg/ml; data not shown
Text: as §3

[6] = system: uterine fibroids; settings: women with uterine fibroids after treatment with EGCG; cited from earlier work
[7] = system: uterine fibroid tumors; settings: mice; cited from earlier work

SMILES | uterine fibroid cell proliferation [1] | size of uterine fibroids / uterine fibroid tumor growth [2] | fibronectin release (production) [3] | collagen release (production) [4] | fibroblasts proliferation rate [5] | fibroblasts viability [5] | reduction in the total fibroid volume [6] [%] | apoptosis in human uterine fibroid cells [1] | volume of uterine fibroid tumors [7] | collagen release (production) ([4]; listed as Vitamin D)
C=C1/C(=C\C=C2/CCC[C@]3(C)[C@@H]([C@H](C)CCCC(C)(C)O)CC[C@@H]23)C[C@@H](O)C[C@@H]1O [1,25-dihydroxyvitamin D] | inhibits | decreases the size |  |  |  |  |  |  |  | 
O=C(O[C@@H]1Cc2c(O)cc(O)cc2O[C@@H]1c1cc(O)c(O)c(O)c1)c1cc(O)c(O)c(O)c1 [EGCG, epigallocatechin gallate] | inhibits proliferation |  | significantly reduces | significantly reduces | does not significantly modify | does not significantly modify | 32.6 | induces apoptosis | reduces the volume | 
C=C1CC[C@H](O)C/C1=C/C=C1\CCC[C@]2(C)[C@@H]([C@H](C)CCCC(C)C)CC[C@@H]12 [Vitamin D3, cholecalciferol] | reduces | reduces | slightly increases | significantly reducing | does not significantly modify | does not significantly modify |  |  |  | reduces
